The results in this text go back to patent US20240132513A1, “BENZAZEPINE DERIVATIVES, COMPOSITIONS, AND METHODS FOR TREATING COGNITIVE IMPAIRMENT” (AGENEBIO, INC., priority 2022, published 2024).

A word on the Ki: it is a dissociation constant, usually derived from enzyme kinetics or from competition with a known ligand. Low readings indicate tighter binding, high ones weaker binding.

One assay concerns the target α5β3γ2 GABAA R (Homo sapiens, UniProt P18507+P31644). In words: Binding activity on GABAA R: inhibition of [3H]Ro15-1788 binding, α5 containing receptor. Put shortly: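 Membranes from dexamethasone-induced (0.5 μM, 1 day) Ltk cells stably expressing α5β3γ2 receptors, 0.2 mg/ml protein, incubated with [3H]Ro15-1788 for 1 h at 4 °C in 50 mM KH2PO4/1 mM EDTA/0.2 M KCl, pH 7.4. Nonspecific binding with 10 μM diazepam; bound ligand by GF/B filtration and scintillation counting, triplicates.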

A further assay deals with T1, GABAA R (α5β2γ2) (Homo sapiens, UniProt P18507+P31644).
T1 construct: expressed in transfected cells
The assay is described as follows: Positive allosteric modulator activity: potentiation of EC20 GABA current in oocytes. It is filed as cell-based. The gist of the method: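 Xenopus oocytes injected with 1 ng α5:β2:γ2 cDNA (1:1:10 by weight), tested day 2, voltage-clamped at −60 mV under MBS superfusion.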

Setting [1] is: ranges of the column heads, [3H]Ro15-1788, Ltk cell membranes.
[2] abbreviates: read-out: GABA α5 Functional Data: potentiation.
[3] abbreviates: read-out: GABA α5 Functional Data: potentiation, @ 100 nM, EC20 GABA, ranges of the column heads.

Each structure is given as a SMILES string. Where two headings read alike, the source gives them in different places. Where only a bound is given, the exact number is not on record here.

Sequence of α5β3γ2 GABAA R (P31644 32-462): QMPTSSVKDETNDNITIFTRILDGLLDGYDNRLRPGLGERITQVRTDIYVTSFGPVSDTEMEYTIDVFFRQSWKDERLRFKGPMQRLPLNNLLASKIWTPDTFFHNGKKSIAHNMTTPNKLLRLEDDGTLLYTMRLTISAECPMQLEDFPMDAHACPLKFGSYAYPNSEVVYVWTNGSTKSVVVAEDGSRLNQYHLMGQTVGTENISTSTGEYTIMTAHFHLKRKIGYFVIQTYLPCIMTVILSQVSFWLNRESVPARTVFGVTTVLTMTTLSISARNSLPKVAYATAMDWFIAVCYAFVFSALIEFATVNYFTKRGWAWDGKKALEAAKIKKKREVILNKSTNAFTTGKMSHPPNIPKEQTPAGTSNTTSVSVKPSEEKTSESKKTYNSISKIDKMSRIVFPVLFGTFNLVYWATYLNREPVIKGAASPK
Sequence of α5β3γ2 GABAA R (P28472 26-473 partner): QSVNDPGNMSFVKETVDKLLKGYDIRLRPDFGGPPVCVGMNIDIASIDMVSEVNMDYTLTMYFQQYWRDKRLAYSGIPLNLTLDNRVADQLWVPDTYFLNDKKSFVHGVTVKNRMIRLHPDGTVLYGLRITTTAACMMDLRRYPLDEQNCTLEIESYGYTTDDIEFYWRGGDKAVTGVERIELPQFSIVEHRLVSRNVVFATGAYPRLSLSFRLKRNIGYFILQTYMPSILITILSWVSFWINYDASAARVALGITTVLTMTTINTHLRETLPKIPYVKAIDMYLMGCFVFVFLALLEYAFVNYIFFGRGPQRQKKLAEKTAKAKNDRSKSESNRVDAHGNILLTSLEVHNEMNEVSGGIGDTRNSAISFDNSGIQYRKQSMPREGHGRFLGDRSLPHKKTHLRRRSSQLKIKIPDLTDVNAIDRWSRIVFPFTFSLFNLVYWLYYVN
Sequence of α5β3γ2 GABAA R (P18507 40-475): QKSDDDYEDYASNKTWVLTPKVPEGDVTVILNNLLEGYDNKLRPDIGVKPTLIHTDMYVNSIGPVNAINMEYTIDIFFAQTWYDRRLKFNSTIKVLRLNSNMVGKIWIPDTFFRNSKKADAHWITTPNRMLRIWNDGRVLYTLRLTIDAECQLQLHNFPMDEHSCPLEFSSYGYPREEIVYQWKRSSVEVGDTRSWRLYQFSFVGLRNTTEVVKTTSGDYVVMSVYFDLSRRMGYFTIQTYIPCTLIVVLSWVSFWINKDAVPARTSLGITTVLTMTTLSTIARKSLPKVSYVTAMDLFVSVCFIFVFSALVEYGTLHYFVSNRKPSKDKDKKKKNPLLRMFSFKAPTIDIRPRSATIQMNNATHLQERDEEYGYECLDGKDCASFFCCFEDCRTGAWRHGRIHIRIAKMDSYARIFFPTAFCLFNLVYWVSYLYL
T1 sequence (P31644 32-462): as the sequence (P31644 32-462) above
T1 sequence (P47870 25-512 partner limits assumed): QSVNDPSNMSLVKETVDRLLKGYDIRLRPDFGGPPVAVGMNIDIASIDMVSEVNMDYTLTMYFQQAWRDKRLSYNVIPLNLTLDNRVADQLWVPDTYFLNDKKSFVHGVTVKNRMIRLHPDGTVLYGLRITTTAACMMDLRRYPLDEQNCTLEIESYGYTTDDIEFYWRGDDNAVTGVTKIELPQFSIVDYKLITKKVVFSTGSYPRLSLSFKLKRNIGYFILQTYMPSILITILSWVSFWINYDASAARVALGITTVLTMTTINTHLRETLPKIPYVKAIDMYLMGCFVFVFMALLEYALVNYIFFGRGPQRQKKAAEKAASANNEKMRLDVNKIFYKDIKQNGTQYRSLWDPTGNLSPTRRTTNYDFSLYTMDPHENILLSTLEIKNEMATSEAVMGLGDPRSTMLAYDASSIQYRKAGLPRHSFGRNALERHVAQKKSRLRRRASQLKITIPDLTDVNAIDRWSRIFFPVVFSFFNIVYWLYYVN
T1 sequence (P18507 40-475): as the sequence (P18507 40-475) above

Consider `CCn1cc2c(n1)-c1cc(OC)ccc1-n1cnc(-c3noc(C(F)(F)F)n3)c1C2` [Compound 158], for which the Ki on α5β3γ2 GABAA R (setting [1]) was < 100 nM. The activation at 0.1 µM at GABAA R (α5β2γ2) (setting [2]) is 5 to 20%.
For `Clc1ccc2c(c1)-c1nn(CC3CC3)cc1Cc1c(-c3ncco3)ncn1-2` [Compound 172], the Ki on α5β3γ2 GABAA R (setting [1]) was < 100 nM. The activation at 0.1 µM at GABAA R (α5β2γ2) (setting [2]) lay in the range of 5 to 20%.
In the case of `Cn1cc2c(n1)-c1cc(Cl)ccc1-n1cnc(-c3cnn(Cc4ccccn4)c3)c1C2` [Compound 190], the Ki at α5β3γ2 GABAA R is < 100 nM. The activation at 0.1 µM at GABAA R (α5β2γ2) (setting [3]) was in the range of 20 to 50%.
`CC(C)c1noc(-c2ncn3c2Cc2cn(Cc4cccnc4)nc2-c2cc(Cl)ccc2-3)n1` [Compound 98]: at α5β3γ2 GABAA R (setting [1]), the Ki was < 100 nM. The activation at 0.1 µM on GABAA R (α5β2γ2) (setting [2]) was 5 to 20%.
Consider `CCn1cc2c(n1)-c1cc(Cl)ccc1-n1cnc(-c3noc(COC(C)(C)C)n3)c1C2` [Compound 197], for which the Ki on α5β3γ2 GABAA R is < 100 nM. For the same molecule, on GABAA R (α5β2γ2) (setting [3]), the activation at 0.1 µM fell in the range of 5 to 20%.
Turning to `COCc1nc(-c2ncn3c2Cc2cn(C)nc2-c2cc(OC)ccc2-3)no1` [Compound 153], the Ki at α5β3γ2 GABAA R (setting [1]) is < 100 nM. For the same molecule, the activation at 0.1 µM on GABAA R (α5β2γ2) (setting [2]) is 20 to 50%.
`CCn1cc2c(n1)-c1cc(OC)ccc1-n1cnc(-c3noc(C(C)(C)OC)n3)c1C2` [Compound 255]: the Ki at α5β3γ2 GABAA R was < 100 nM. Further, at GABAA R (α5β2γ2) (setting [3]), the activation at 0.1 µM was in the range of 5 to 20%.
In the same order, the values of `CN(C)Cc1coc(-c2ncn3c2Cc2cn(C)nc2-c2cc(Cl)ccc2-3)n1` [Compound 277] are < 100 nM and 20 to 50%.
On to `CCn1ncc2c1-c1cc(Cl)ccc1-n1cnc(-c3nc(C4CC4)no3)c1C2` [Compound 139], for which the Ki on α5β3γ2 GABAA R (setting [1]) is < 100 nM. On GABAA R (α5β2γ2) (setting [2]), the activation at 0.1 µM was 20 to 50%.
Take `COc1ccc2c(c1)-c1nn(C)cc1Cc1c(-c3noc(C(C)(C)C)n3)ncn1-2` [Compound 146]: at α5β3γ2 GABAA R, the Ki was < 100 nM. The activation at 0.1 µM on GABAA R (α5β2γ2) (setting [3]) is 5 to 20%.
For the molecule `CC(C)(C)C#Cc1ncn2c1Cc1cn[nH]c1-c1cc(Cl)ccc1-2` [Compound 63], the Ki on α5β3γ2 GABAA R (setting [1]) was < 100 nM. Further, the activation at 0.1 µM on GABAA R (α5β2γ2) (setting [2]) is 20 to 50%.
Consider `Cn1cc2c(n1)-c1cc(Cl)ccc1-n1cnc(-c3nnc(C(F)(F)F)o3)c1C2` [Compound 210], for which the Ki at α5β3γ2 GABAA R is < 100 nM. On GABAA R (α5β2γ2) (setting [3]), the activation at 0.1 µM was in the range of 20 to 50%.
Consider `Clc1ccc2c(c1)-c1[nH]ncc1Cc1c(-c3nc(C4CCCC4)no3)ncn1-2` [Compound 115], for which the Ki on α5β3γ2 GABAA R is < 100 nM. For the same molecule, the activation at 0.1 µM at GABAA R (α5β2γ2) (setting [3]) was 5 to 20%.
With `FC(F)(F)c1noc(-c2ncn3c2Cc2cn(C4CCOC4)nc2-c2cc(Cl)ccc2-3)n1` (stereo not shown) [Compound 228], the Ki at α5β3γ2 GABAA R is < 100 nM. For the same molecule, at GABAA R (α5β2γ2) (setting [3]), the activation at 0.1 µM was in the range of 5 to 20%.
Turning to `COc1ccc2c(c1)-c1[nH]ncc1Cc1c(-c3noc(C4(OC)CC4)n3)ncn1-2` [Compound 188], the Ki at α5β3γ2 GABAA R (setting [1]) is < 100 nM. Besides, the activation at 0.1 µM at GABAA R (α5β2γ2) (setting [2]) was > 50%.
`COc1ccc2c(c1)-c1nn(CC3CC3)cc1Cc1c(-c3nc(C4CC4)no3)ncn1-2` [Compound 171]: on α5β3γ2 GABAA R, the Ki is < 100 nM. For the same molecule, the activation at 0.1 µM on GABAA R (α5β2γ2) (setting [3]) was in the range of 5 to 20%.
For the molecule `CCn1cc2c(n1)-c1cc(Cl)ccc1-n1cnc(-c3noc(C(C)C)n3)c1C2` [Compound 175], the Ki at α5β3γ2 GABAA R (setting [1]) was < 100 nM. At GABAA R (α5β2γ2) (setting [2]), the activation at 0.1 µM was 20 to 50%.
For `CCn1cc2c(n1)-c1cc(Cl)ccc1-n1cnc(-c3noc(C4CC4)n3)c1C2` [Compound 176], the Ki on α5β3γ2 GABAA R (setting [1]) is < 100 nM. Moreover, at GABAA R (α5β2γ2) (setting [2]), the activation at 0.1 µM was 5 to 20%.
As for `Cn1cc2c(n1)-c1cc(Cl)ccc1-n1cnc(-c3cnn(CC4CCCO4)c3)c1C2` (stereo not shown) [Compound 222], the Ki on α5β3γ2 GABAA R is < 100 nM. Moreover, the activation at 0.1 µM on GABAA R (α5β2γ2) (setting [3]) was 5 to 20%.
`CCn1cc2c(n1)-c1cc(Cl)ccc1-n1cnc(C3=N[C@@H](c4ccccc4)CO3)c1C2` [Compound 179]: on α5β3γ2 GABAA R, the Ki was < 100 nM. Further, the activation at 0.1 µM at GABAA R (α5β2γ2) (setting [3]) was 20 to 50%.
`COc1ccc2c(c1)-c1nn(C)cc1Cc1c(-c3nc([C@H]4CCOC4)no3)ncn1-2` [Compound 252]: the Ki at α5β3γ2 GABAA R is < 100 nM. The activation at 0.1 µM at GABAA R (α5β2γ2) (setting [3]) is 20 to 50%.
`Clc1ccc2c(c1)-c1nn(CC3CC3)cc1Cc1c(-c3nc(C4CC4)no3)ncn1-2` [Compound 129]: the Ki on α5β3γ2 GABAA R is < 100 nM. Further, the activation at 0.1 µM at GABAA R (α5β2γ2) (setting [3]) fell in the range of 20 to 50%.
Consider `CCn1cc2c(n1)-c1cc(Cl)ccc1-n1cnc(C3=N[C@H](C(C)C)CO3)c1C2` [Compound 177], for which the Ki on α5β3γ2 GABAA R was < 100 nM. Also, at GABAA R (α5β2γ2) (setting [3]), the activation at 0.1 µM is 5 to 20%.
In the same order, the values of `CC(C)n1cc2c(n1)-c1cc(Cl)ccc1-n1cnc(-c3ncco3)c1C2` [Compound 167] are < 100 nM and 5 to 20%.
In the case of `COc1ccc2c(c1)-c1c(cnn1CC1CCCO1)Cc1c(-c3nc(C(C)C)no3)ncn1-2` (stereo not shown) [Compound 244], the Ki on α5β3γ2 GABAA R is < 100 nM. Also, the activation at 0.1 µM on GABAA R (α5β2γ2) (setting [3]) lay in the range of 5 to 20%.
Turning to `COc1ccc2c(c1)-c1nn(C)cc1Cc1c(-c3nc(C4CC4)no3)ncn1-2` [Compound 120], the Ki on α5β3γ2 GABAA R (setting [1]) was < 100 nM. Also, the activation at 0.1 µM at GABAA R (α5β2γ2) (setting [2]) lay within 20 to 50%.
